Measurements: ChEMBL document CHEMBL1127423, “An evaluation of the antirhinoviral activity of acetylfuran replacements for 3-methylisoxazoles. Are 2-acetylfurans bioisosteres for 3-methylisoxazoles?” (J Med Chem, 1994)
≈ marks a conversion by molar mass, not a printed value. Calls of active or inactive are those of the source. The rule behind the calls is not given here.

Key:
[1] = Partition coefficient (logP) (HPLC); format: physicochemical; details: octanol/water
Human rhinovirus sp. [2] = assay: Tested for in vitro antiviral activity against Human rhinovirus (HRV)-14; format: functional
Human rhinovirus sp. [3] = assay: Antirhinoviral activity calculated for mean of fifteen serotypes (HRV-1A, -1B, -2, -6, -14, -15, -21, -22, -25, -30, -41, --50, -67, -86, -89); format: functional
Human rhinovirus sp. [4] = assay: Compound was tested in vitro for minimal inhibitory constant against 80% of fifteen human rhinovirus serotypes
Human rhinovirus sp. [5] = assay: tested for minimal inhibitory concentration against Human rhinovirus serotype 15 by plaque reduction assay; format: functional
Human rhinovirus sp. [6] = assay: tested for minimal inhibitory concentration against Human rhinovirus serotype 67 by plaque reduction assay; format: functional
Human rhinovirus sp. [7] = assay: tested for minimal inhibitory concentration against Human rhinovirus serotype 89 by plaque reduction assay; format: functional
Human rhinovirus sp. [8] = assay: tested for minimal inhibitory concentration against Human rhinovirus serotype 14 by plaque reduction assay; format: functional
Human rhinovirus sp. [9] = assay: tested for minimal inhibitory concentration against Human rhinovirus serotype 41 by plaque reduction assay; format: functional
Human rhinovirus sp. [10] = assay: tested for minimal inhibitory concentration against Human rhinovirus serotype 50 by plaque reduction assay; format: functional
Human rhinovirus sp. [11] = assay: tested for minimal inhibitory concentration against Human rhinovirus serotype 6 by plaque reduction assay; format: functional
Human rhinovirus sp. [12] = assay: tested for minimal inhibitory concentration against Human rhinovirus serotype 21 by plaque reduction assay; format: functional
Human rhinovirus sp. [13] = assay: tested for minimal inhibitory concentration against Human rhinovirus serotype 22 by plaque reduction assay; format: functional
Human rhinovirus sp. [14] = assay: tested for minimal inhibitory concentration against Human rhinovirus serotype 25 by plaque reduction assay; format: functional
Human rhinovirus sp. [15] = assay: tested for minimal inhibitory concentration against Human rhinovirus serotype 30 by plaque reduction assay; format: functional
Human rhinovirus sp. [16] = assay: tested for minimal inhibitory concentration against Human rhinovirus serotype 1A by plaque reduction assay; format: functional
Human rhinovirus sp. [17] = assay: tested for minimal inhibitory concentration against Human rhinovirus serotype 2 by plaque reduction assay; format: functional
Human rhinovirus sp. [18] = assay: tested for minimal inhibitory concentration against Human rhinovirus serotype 1B by plaque reduction assay; format: functional
Human rhinovirus sp. [19] = assay: tested for minimal inhibitory concentration against Human rhinovirus serotype 86 by plaque reduction assay; format: functional
Human rhinovirus sp. [20] = assay: Tested for minimal inhibitory concentration against Human rhinovirus serotype 15 by plaque reduction assay; format: functional
Human rhinovirus sp. [21] = assay: Tested for minimal inhibitory concentration against Human rhinovirus serotype 67 by plaque reduction assay; format: functional
Human rhinovirus sp. [22] = assay: Tested for minimal inhibitory concentration against Human rhinovirus serotype 86 by plaque reduction assay; format: functional
Human rhinovirus sp. [23] = assay: Antirhinoviral activity calculated for mean of fifteen serotypes (HRV-1A, -1B, -2, -6, -14, -15, -21, -22, -25, -30, -41, --50, -67, -86, -89); inactive against HRV-1A, -6, -14,-67; format: functional, organism-based
Human rhinovirus sp. [24] = assay: Tested for minimal inhibitory concentration against Human rhinovirus serotype 89 by plaque reduction assay; format: functional
Human rhinovirus sp. [25] = assay: Tested for minimal inhibitory concentration against Human rhinovirus serotype 41 by plaque reduction assay; inactive; format: functional, organism-based
Human rhinovirus sp. [26] = assay: Tested for minimal inhibitory concentration against Human rhinovirus serotype 50 by plaque reduction assay; format: functional
Human rhinovirus sp. [27] = assay: Tested for minimal inhibitory concentration against Human rhinovirus serotype 6 by plaque reduction assay; format: functional
Human rhinovirus sp. [28] = assay: Tested for minimal inhibitory concentration against Human rhinovirus serotype 14 by plaque reduction assay; format: functional
Human rhinovirus sp. [29] = assay: Tested for minimal inhibitory concentration against Human rhinovirus serotype 21 by plaque reduction assay; format: functional
Human rhinovirus sp. [30] = assay: Tested for minimal inhibitory concentration against Human rhinovirus serotype 22 by plaque reduction assay; format: functional
Human rhinovirus sp. [31] = assay: Tested for minimal inhibitory concentration against Human rhinovirus serotype 25 by plaque reduction assay; inactive; format: functional, organism-based
Human rhinovirus sp. [32] = assay: Tested for minimal inhibitory concentration against Human rhinovirus serotype 1A by plaque reduction assay; format: functional
Human rhinovirus sp. [33] = assay: Tested for minimal inhibitory concentration against Human rhinovirus serotype 1B by plaque reduction assay; inactive; format: functional, organism-based
Human rhinovirus sp. [34] = assay: Tested for minimal inhibitory concentration against Human rhinovirus serotype 2 by plaque reduction assay; format: functional
Human rhinovirus sp. [35] = assay: Tested for minimal inhibitory concentration against Human rhinovirus serotype 30 by plaque reduction assay; format: functional
Human rhinovirus sp. [36] = assay: Antirhinoviral activity calculated for mean of fifteen serotypes (HRV-1A, -1B, -2, -6, -14, -15, -21, -22, -25, -30, -41, --50, -67, -86, -89); inactive against HRV-6,-41,-67,-86; format: functional, organism-based
Human rhinovirus sp. [37] = assay: Compound was tested in vitro for minimal inhibitory constant against HRV-14; high capacity tissue culture infectious dose; format: functional, organism-based
Human rhinovirus sp. [38] = assay: Compound was tested in vitro for minimal inhibitory constant against HRV-14; IA= Inactive; format: functional, organism-based
Human rhinovirus sp. [39] = assay: tested for in vitro antiviral activity against Human rhinovirus (HRV)-14; format: functional
Human rhinovirus sp. [40] = assay: Compound was tested in vitro for minimal inhibitory constant against HRV-14; inactive against HRV-1A, -6, -14,-67; format: functional, organism-based
Human rhinovirus sp. [41] = assay: Tested for in vitro antiviral activity against Human rhinovirus (HRV)-14; inactive against HRV-1A, -6, -14,-67; format: functional, organism-based

| Compound | logP [1] | MIC80 (Human rhinovirus sp. [4]) [µM] | Activity (Human rhinovirus sp. [2]) [µM] | Activity (Human rhinovirus sp. [3]) [µM] | other results |
| --- | --- | --- | --- | --- | --- |
| CC(=O)c1ccc(CCCCCOc2c(Cl)cc(C3=NCCO3)cc2Cl)o1 | 4.6 | 0.7 (≈ 0.287 µg/mL) | 2 | 0.5 | – |
| CC(=O)c1ccc(CCCOc2c(C)cc(-c3noc(C)n3)cc2C)o1 | – | 0.4 (≈ 0.142 µg/mL) | 0.5 | 0.2 | – |
| Cc1cc(CCCOc2c(C)cc(-c3noc(C)n3)cc2C)on1 | – | 0.2 (≈ 0.0655 µg/mL) | 0.2 | 0.1 | – |
| Cc1ccc(CCCOc2c(C)cc(-c3nnn(C)n3)cc2C)o1 | – | – | 30 | – | Activity (Human rhinovirus sp. [36]): inactive; MIC80 (Human rhinovirus sp. [37]): high capacity tissue culture infectious dose |
| Cc1cc(-c2nnn(C)n2)cc(C)c1OCCCCCc1ccc(C=O)o1 | 3.5 | – | – | – | Activity (Human rhinovirus sp. [23]): inactive; MIC80 (Human rhinovirus sp. [38]): inactive; Activity (Human rhinovirus sp. [39]): 27 µM |
| Cc1ccc(CCCOc2c(C)cc(-c3noc(C)n3)cc2C)o1 | – | – | – | – | Activity (Human rhinovirus sp. [40]): inactive; Activity (Human rhinovirus sp. [23]): inactive; Activity (Human rhinovirus sp. [41]): inactive |
| CC(=O)c1ccc(CCCCCOc2c(C)cc(-c3nnn(C)n3)cc2C)o1 | 3.7 | 0.8 (≈ 0.306 µg/mL) | 1.2 | 0.6 | – |

More lines, main results first:

| logP [1] | MIC80 (Human rhinovirus sp. [4]) [µM] | Compound | Activity (Human rhinovirus sp. [2]) [µM] | Activity (Human rhinovirus sp. [3]) [µM] | other results |
| --- | --- | --- | --- | --- | --- |
| – | 0.9 (≈ 0.449 µg/mL) | CC(=O)c1ccc(CCCCCOc2c(Br)cc(C3=NCCO3)cc2Br)o1 | 3.3 | 0.7 | – |
| 4.6 | 0.9 (≈ 0.345 µg/mL) | Cc1cc(CCCCCOc2c(Cl)cc(C3=NCCO3)cc2Cl)on1 [WIN-54954] | 2.3 | 0.7 | – |
| 3.6 | 0.6 (≈ 0.213 µg/mL) | Cc1cc(CCCCCOc2c(C)cc(-c3nnn(C)n3)cc2C)on1 | 0.8 | 0.5 | – |
| – | 1 (≈ 0.341 µg/mL) | CC(=O)c1ccc(CCCCCOc2ccc(C3=NCCO3)cc2)o1 | 1.1 | 0.9 | MIC (Human rhinovirus sp. [5]): 0.7 µM (≈ 0.239 µg/mL); MIC (Human rhinovirus sp. [6]): 1 µM (≈ 0.341 µg/mL); MIC (Human rhinovirus sp. [7]): 0.05 µM (≈ 0.0171 µg/mL); MIC (Human rhinovirus sp. [8]): 1 µM (≈ 0.341 µg/mL); MIC (Human rhinovirus sp. [9]): 2.2 µM (≈ 0.751 µg/mL); MIC (Human rhinovirus sp. [10]): 0.2 µM (≈ 0.0683 µg/mL); MIC (Human rhinovirus sp. [11]): 0.3 µM (≈ 0.102 µg/mL); MIC (Human rhinovirus sp. [12]): 0.4 µM (≈ 0.137 µg/mL); MIC (Human rhinovirus sp. [13]): 1.6 µM (≈ 0.546 µg/mL); MIC (Human rhinovirus sp. [14]): 4.5 µM (≈ 1.54 µg/mL); MIC (Human rhinovirus sp. [15]): 0.1 µM (≈ 0.0341 µg/mL); MIC (Human rhinovirus sp. [16]): 0.2 µM (≈ 0.0683 µg/mL); MIC (Human rhinovirus sp. [17]): 0.5 µM (≈ 0.171 µg/mL); MIC (Human rhinovirus sp. [18]): 0.3 µM (≈ 0.102 µg/mL); MIC (Human rhinovirus sp. [19]): 0.4 µM (≈ 0.137 µg/mL) |
| – | 7 (≈ 2.2 µg/mL) | Cc1cc(CCCCCOc2ccc(C3=NCCO3)cc2)on1 | 0.7 | – | MIC (Human rhinovirus sp. [20]): 1.5 µM (≈ 0.472 µg/mL); MIC (Human rhinovirus sp. [21]): 2.4 µM (≈ 0.755 µg/mL); MIC (Human rhinovirus sp. [22]): 0.1 µM (≈ 0.0314 µg/mL); Activity (Human rhinovirus sp. [23]): inactive; MIC (Human rhinovirus sp. [24]): 0.4 µM (≈ 0.126 µg/mL); MIC (Human rhinovirus sp. [25]): inactive; MIC (Human rhinovirus sp. [26]): 1.5 µM (≈ 0.472 µg/mL); MIC (Human rhinovirus sp. [27]): 0.06 µM (≈ 0.0189 µg/mL); MIC (Human rhinovirus sp. [28]): 0.7 µM (≈ 0.22 µg/mL); MIC (Human rhinovirus sp. [29]): 1.2 µM (≈ 0.377 µg/mL); MIC (Human rhinovirus sp. [30]): 0.9 µM (≈ 0.283 µg/mL); MIC (Human rhinovirus sp. [31]): inactive; MIC (Human rhinovirus sp. [32]): 7 µM (≈ 2.2 µg/mL); MIC (Human rhinovirus sp. [33]): inactive; MIC (Human rhinovirus sp. [34]): 1.1 µM (≈ 0.346 µg/mL); MIC (Human rhinovirus sp. [35]): 0.3 µM (≈ 0.0943 µg/mL) |
| – | 1.4 (≈ 0.661 µg/mL) | Cc1cc(CCCCCOc2c(Br)cc(C3=NCCO3)cc2Br)on1 | 2 | 0.6 | – |
| 3.2 | 0.4 (≈ 0.131 µg/mL) | Cc1cc(CCCOc2c(C)cc(-c3nnn(C)n3)cc2C)on1 | 1.7 | 0.5 | – |
| 3.2 | 0.5 (≈ 0.177 µg/mL) | CC(=O)c1ccc(CCCOc2c(C)cc(-c3nnn(C)n3)cc2C)o1 | 0.5 | 0.3 | – |
